Converted amounts (≈) assume the structure as drawn.
Legend:
Format in all cases: functional
[1] = tested on: Candida albicans; experiment: Antimicrobial activity against Candida albicans DSM 70014 after 48 hr by two-fold serial broth dilution method; conditions: DSM 70014, 48 h
[2] = tested on: Pseudomonas aeruginosa; experiment: Antimicrobial activity against Pseudomonas aeruginosa ATCC 10145 after 48 hr by two-fold serial broth dilution method; conditions: ATCC 10145, 48 h
[3] = tested on: Staphylococcus aureus; experiment: Antimicrobial activity against Staphylococcus aureus DSM 1104 after 48 hr by two-fold serial broth dilution method; conditions: DSM 1104, 48 h
[4] = tested on: Escherichia coli; experiment: Antimicrobial activity against Escherichia coli ATCC 11775 after 48 hr by two-fold serial broth dilution method; conditions: ATCC 11775, 48 h
[5] = tested on: Bacillus subtilis; experiment: Antimicrobial activity against Bacillus subtilis ATCC 6633 after 48 hr by two-fold serial broth dilution method; conditions: ATCC 6633, 48 h
[6] = tested on: Pseudomonas aeruginosa; experiment: Ratio of ampicillin MIC to compound MIC for Pseudomonas aeruginosa ATCC 10145 after 48 hr by two-fold serial broth dilution method
[7] = tested on: SR; experiment: Growth inhibition of Homo sapiens (human) SR cells at 10 uM after 48 hr by SRB assay; conditions: read-out: GI
[8] = tested on: T47D; experiment: Growth inhibition of Homo sapiens (human) T47D cells at 10 uM after 48 hr by SRB assay; conditions: read-out: GI
[9] = tested on: UO-31; experiment: Growth inhibition of Homo sapiens (human) UO31 cells at 10 uM after 48 hr by SRB assay; conditions: UO-31, 48 h, read-out: GI

MIC [1] [µg/mL] | MIC [2] [µg/mL] | MIC [3] [µg/mL] | MIC [4] [µg/mL] | MIC [5] [µg/mL] | SMILES | MFC [1] [µg/mL] | MBC [2] [µg/mL] | MBC [3] [µg/mL] | MBC [4] [µg/mL] | MBC [5] [µg/mL] | Ratio [6] | inhibition of growth at 10 µM [7] [%] | inhibition of growth at 10 µM [8] [%] | inhibition of growth at 10 µM [9] [%]
100 (≈ 262 µM) | 100 (≈ 262 µM) | 100 (≈ 262 µM) | 100 (≈ 262 µM) | 50 (≈ 131 µM) | CCSc1nnc(/C=C/c2cc(OC)ccc2OC)n1-c1ccc(C)cc1 | 100 (≈ 262 µM) | 100 (≈ 262 µM) | 100 (≈ 262 µM) | 100 (≈ 262 µM) | 100 (≈ 262 µM) |  |  |  | 
50 (≈ 124 µM) | 50 (≈ 124 µM) | 100 (≈ 249 µM) | 50 (≈ 124 µM) | 50 (≈ 124 µM) | CCSc1nnc(/C=C/c2cc(OC)ccc2OC)n1-c1ccc(Cl)cc1 | 50 (≈ 124 µM) | 50 (≈ 124 µM) | 100 (≈ 249 µM) | 50 (≈ 124 µM) | 100 (≈ 249 µM) |  |  |  | 
50 (≈ 136 µM) | 100 (≈ 272 µM) | 100 (≈ 272 µM) | 100 (≈ 272 µM) | 100 (≈ 272 µM) | CCSc1nnc(/C=C/c2cc(OC)ccc2OC)n1-c1ccccc1 | 50 (≈ 136 µM) | 100 (≈ 272 µM) | 100 (≈ 272 µM) | 100 (≈ 272 µM) | 100 (≈ 272 µM) |  |  |  | 
100 (≈ 296 µM) | 50 (≈ 148 µM) | 100 (≈ 296 µM) | 50 (≈ 148 µM) | 100 (≈ 296 µM) | COc1ccc(OC)c(/C=C/c2nnc(Nc3ccc(C)cc3)o2)c1 | 100 (≈ 296 µM) | 50 (≈ 148 µM) | 100 (≈ 296 µM) | 50 (≈ 148 µM) | 100 (≈ 296 µM) |  |  |  | 
50 (≈ 129 µM) | 25 (≈ 64.6 µM) | 100 (≈ 259 µM) | 25 (≈ 64.6 µM) | 50 (≈ 129 µM) | COc1ccc(OC)c(/C=C/C2=NN(C(C)=O)C(c3ccc(Cl)cc3)O2)c1 (stereo not given) | 100 (≈ 259 µM) | 50 (≈ 129 µM) | 100 (≈ 259 µM) | 50 (≈ 129 µM) | 50 (≈ 129 µM) |  |  |  | 
50 (≈ 102 µM) | 12.5 (≈ 25.5 µM) | 25 (≈ 51.1 µM) | 12.5 (≈ 25.5 µM) | 25 (≈ 51.1 µM) | COc1ccc(OC)c(/C=C/c2nnc(SCC(=O)c3cc(O)ccc3O)n2-c2ccccc2)c1 | 50 (≈ 102 µM) | 25 (≈ 51.1 µM) | 50 (≈ 102 µM) | 25 (≈ 51.1 µM) | 50 (≈ 102 µM) | 4 |  |  | 
100 (≈ 295 µM) | 100 (≈ 295 µM) | 50 (≈ 147 µM) | 25 (≈ 73.7 µM) | 50 (≈ 147 µM) | COc1ccc(OC)c(/C=C/c2nnc(S)n2-c2ccccc2)c1 | 100 (≈ 295 µM) | 100 (≈ 295 µM) | 50 (≈ 147 µM) | 50 (≈ 147 µM) | 50 (≈ 147 µM) |  |  |  | 
50 (≈ 141 µM) | 50 (≈ 141 µM) | 100 (≈ 281 µM) | 50 (≈ 141 µM) | 50 (≈ 141 µM) | COc1ccc(OC)c(/C=C/C(=O)N/N=C/c2ccc([N+](=O)[O-])cc2)c1 | 50 (≈ 141 µM) | 50 (≈ 141 µM) | 100 (≈ 281 µM) | 50 (≈ 141 µM) | 50 (≈ 141 µM) |  |  |  | 
25 (≈ 66.9 µM) | 100 (≈ 267 µM) | 25 (≈ 66.9 µM) | 100 (≈ 267 µM) | 100 (≈ 267 µM) | COc1ccc(OC)c(/C=C/c2nnc(Nc3ccc(Cl)cc3)s2)c1 | 50 (≈ 134 µM) | 100 (≈ 267 µM) | 100 (≈ 267 µM) | 100 (≈ 267 µM) | 100 (≈ 267 µM) |  | 32.1 |  | 
50 (≈ 141 µM) | 25 (≈ 70.7 µM) | 50 (≈ 141 µM) | 50 (≈ 141 µM) | 50 (≈ 141 µM) | COc1ccc(OC)c(/C=C/c2nnc(SC)n2-c2ccccc2)c1 | 50 (≈ 141 µM) | 50 (≈ 141 µM) | 50 (≈ 141 µM) | 50 (≈ 141 µM) | 50 (≈ 141 µM) | 2 |  | 41.8 | 44.5
